Assay results taken from patent US8299114B2, “Bicyclic derivatives of azabicyclic carboxamides, preparation thereof and therapeutic use thereof” (priority 2008, dated 2012).

What was measured:
TRPV1 receptor = target: T1, TRPV1 receptor (Rattus norvegicus, UniProt O35433); test: Inhibition of the current induced with capsaicin on rat DRGs (whole-cell patch-clamp); format: cell-based; conditions: inhibition of control capsaicin response, newborn rat DRG neurones
T1 construct: DRG neurones naturally express the TRPV1 receptor; endogenous in cells; host or cells: primary culture of newborn rat dorsal root ganglion neurones
Description: Test of Inhibition of the Current Induced with Capsaicin on Rat DRGs
• Primary culture of rat dorsal root ganglion (DRG) cells:
DRG neurones naturally express the TRPV1 receptor.
The primary cultures of newborn rat DRGs are prepared using 1-day-old rats. Briefly, after dissection, the ganglions are trypsinized and the cells dissociated by mechanical trituration. The cells are resuspended in an Eagle basal culture medium containing 10% foetal calf serum, 25 mM KCl, 2 mM glutamine, 100 μg/ml gentamicin and 50 ng/ml of NGF, and then deposited on glass slides coated with laminin (0.25×10^6 cells per slide), which are then placed in Corning 12-well dishes. The cells are incubated at 37° C. in a humidified atmosphere containing 5% CO2 and 95% air. […]
The measuring chambers (volume 800 μl) containing the cell preparation are placed on the platform of an inverted microscope (Olympus IMT2) equipped with Hoffman optics (Modulation Contrast, New York) and observed at a magnification of 400×. […] The overall currents (membrane potential set at −60 mV) are recorded with an Axopatch 1D amplifier (Axon Instruments, Foster City, Calif.), connected to a PC running the Pclamp8 software (Axon Instrument). The current plots are recorded on paper and simultaneously digitized (sampling frequency 15 to 25 Hz) and acquired on the hard drive of the PC. […]

TRPV1 receptors = target: T2, TRPV1 receptors (Mus musculus, UniProt Q704Y3); test: Pain induced by intraplantar administration of capsaicin to mice; format: in vivo; conditions: 10 mg/kg orally 120 minutes before intraplantar capsaicin, n=10, timed over 2 minutes
T2 construct: from tissue; host or cells: live mice, hind leg (in vivo)
T2 sequence (Q704Y3 whole entry): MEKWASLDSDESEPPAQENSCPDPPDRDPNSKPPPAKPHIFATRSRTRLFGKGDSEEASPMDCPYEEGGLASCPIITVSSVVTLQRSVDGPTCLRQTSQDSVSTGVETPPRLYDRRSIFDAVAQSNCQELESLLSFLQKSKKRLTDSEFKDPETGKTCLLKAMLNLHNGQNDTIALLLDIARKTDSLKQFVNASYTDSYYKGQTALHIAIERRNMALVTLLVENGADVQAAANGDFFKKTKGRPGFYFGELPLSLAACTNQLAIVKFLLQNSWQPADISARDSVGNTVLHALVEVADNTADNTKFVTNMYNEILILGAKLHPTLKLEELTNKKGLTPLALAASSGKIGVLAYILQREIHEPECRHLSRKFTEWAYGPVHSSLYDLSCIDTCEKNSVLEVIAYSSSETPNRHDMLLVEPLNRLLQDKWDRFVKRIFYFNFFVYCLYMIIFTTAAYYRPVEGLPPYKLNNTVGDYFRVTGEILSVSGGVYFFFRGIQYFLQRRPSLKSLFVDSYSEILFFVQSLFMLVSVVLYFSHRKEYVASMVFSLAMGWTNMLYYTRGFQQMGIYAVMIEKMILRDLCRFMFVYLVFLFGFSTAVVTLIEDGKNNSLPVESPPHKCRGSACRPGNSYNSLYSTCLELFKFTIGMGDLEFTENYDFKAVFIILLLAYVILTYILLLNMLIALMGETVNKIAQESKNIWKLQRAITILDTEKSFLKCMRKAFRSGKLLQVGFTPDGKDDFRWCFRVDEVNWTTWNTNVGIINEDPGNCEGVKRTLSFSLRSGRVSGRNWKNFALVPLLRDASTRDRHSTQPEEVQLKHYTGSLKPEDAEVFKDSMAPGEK
Description: Pain Induced by Intraplantar Administration of Capsaicin to Mice. The intraplantar injection of capsaicin to mice rapidly produces short-lived nociceptive behaviour, which is reflected by licking, biting and flexing of the administered leg. […] Methodology: (E)-Capsaicin is initially diluted to 3 mg/ml in DMSO, and then diluted again for its final use to 1.5 μg/20 μl in physiological saline. […] The capsaicin is injected into the hind legs of the animal, on the upper face. The test compounds are administered orally 120 minutes before the injection of capsaicin. Two hours after administration of the compounds, the mice are placed in a glass beaker. The nociceptive behaviour of the animals is then assessed immediately by the experimenter, and the duration of the capsaicin-induced behavioural manifestations is timed over a period of 2 minutes (licking and biting, total or partial flexure of the injected leg). For each compound, an inhibition corresponding to the mean of the capsaicin-induced nociceptive responses, in response to a dose of test product (expressed in mg/kg) administered orally to a sample of a given number (n) of mice, is determined.

T1 sequence (O35433 whole entry): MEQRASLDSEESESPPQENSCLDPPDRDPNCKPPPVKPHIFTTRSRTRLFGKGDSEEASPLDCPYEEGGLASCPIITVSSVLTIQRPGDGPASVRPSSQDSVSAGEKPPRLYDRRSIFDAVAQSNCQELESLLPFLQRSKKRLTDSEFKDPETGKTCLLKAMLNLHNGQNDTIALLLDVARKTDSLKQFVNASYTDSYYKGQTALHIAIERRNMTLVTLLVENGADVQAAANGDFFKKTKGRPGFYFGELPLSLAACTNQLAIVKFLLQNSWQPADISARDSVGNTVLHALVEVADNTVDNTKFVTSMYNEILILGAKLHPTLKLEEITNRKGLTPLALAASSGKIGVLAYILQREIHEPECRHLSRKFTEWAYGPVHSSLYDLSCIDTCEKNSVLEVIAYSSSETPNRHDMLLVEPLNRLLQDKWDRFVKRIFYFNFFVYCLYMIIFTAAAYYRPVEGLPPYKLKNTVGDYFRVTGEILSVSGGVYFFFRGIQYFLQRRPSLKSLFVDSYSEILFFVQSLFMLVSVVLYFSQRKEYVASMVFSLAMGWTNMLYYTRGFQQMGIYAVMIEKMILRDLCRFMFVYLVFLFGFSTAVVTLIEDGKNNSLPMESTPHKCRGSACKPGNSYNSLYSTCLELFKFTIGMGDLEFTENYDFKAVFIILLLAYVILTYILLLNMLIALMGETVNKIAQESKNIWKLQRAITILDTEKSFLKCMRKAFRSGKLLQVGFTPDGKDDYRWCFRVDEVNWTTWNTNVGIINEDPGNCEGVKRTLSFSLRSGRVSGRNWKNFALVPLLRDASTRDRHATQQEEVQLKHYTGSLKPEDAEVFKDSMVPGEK

Structure (SMILES)	inhibition at 0.1 µM (TRPV1 receptor; 100 nM compound) [%]	melting point [°C]	inhibition at 0.0001 µM (TRPV1 receptor; 0.1 nM compound) [%]	% inhibition of the capsaicin-induced nociceptive responses (TRPV1 receptors)
Cc1nc2cc(NC(=O)c3cc4cc(F)ccc4n3Cc3cccc(F)c3)cnc2[nH]1 [Compound 11, N-(2-Methyl-3H-imidazo[4,5-b]pyrid-6-yl)-5-fluoro-1-[(3-fluorophenyl)methyl]-1H-indole-2-carboxamide]	62	299 to 300	–	–
O=C(Nc1cnc2sc(CO)nc2c1)c1cc2cc(F)ccc2n1Cc1cccc(F)c1 [Compound 4, N-(2-Hydroxymethylthiazolo[5,4-b]pyrid-6-yl)-5-fluoro-1-[(3-fluorophenyl)methyl]-1H-indole-2-carboxamide]	–	–	65.5	37% (±8%)
